Laboratory results published in ChEMBL document CHEMBL1127940, “Analogs of the marine natural product scalaradial lacking the ,-unsaturated aldehyde: effects on human synovial fluid phospholipase A2 and macrophage lipid mediator production” (Bioorg Med Chem Lett, 1994).

What was measured:
Homo sapiens [1] = species on record: Homo sapiens; test: In vitro inhibition of platelet activating factor (PAF) production in human PMN at 50 uM; not active at 50 uM; assay type: functional
[2] = molecular target: T1, Phospholipase A2, membrane associated (Homo sapiens) (UniProt P14555); test: In vitro percent inhibition against Phospholipase A2 (HSF-PLA2) by monitoring hydrolysis of [3H]- arachidonic acid labeled Escherichia coli at 50 uM
T1 sequence (whole entry): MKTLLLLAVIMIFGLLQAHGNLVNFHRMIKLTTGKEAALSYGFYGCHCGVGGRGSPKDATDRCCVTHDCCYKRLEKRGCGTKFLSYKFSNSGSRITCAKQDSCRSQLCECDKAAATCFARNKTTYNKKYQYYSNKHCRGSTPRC

Homo sapiens [3] = species on record: Homo sapiens; test: In vitro inhibition of LTB4 production in human PMN at 50 uM; not active at 50 uM; assay type: functional
[4] = In vitro inhibition of PGE-2 production in murine resident peritoneal macrophage; assay type: functional; conditions: Mus musculus
[5] = molecular target: T2, Phospholipase A2, membrane associated (Homo sapiens, UniProt P14555); test: In vitro inhibition tested against Phospholipase A2 (HSF-PLA2) by monitoring hydrolysis of [3H]- arachidonic acid labeled Escherichia coli at 50 uM
T2 sequence (P14555 whole entry): T1 sequence (whole entry)

[6] = molecular target: T2, Phospholipase A2, membrane associated; test: In vitro inhibitory activity against human synovial fluid phospholipase A2 (HSF-PLA2) by monitoring hydrolysis of [3H]arachidonic acid labeled Escherichia coli
Homo sapiens [7] = species on record: Homo sapiens; test: In vitro inhibition of platelet activating factor (PAF) production in human PMN; assay type: functional
Homo sapiens [8] = species on record: Homo sapiens; test: In vitro inhibition of LTB4 production in human PMN; assay type: functional
Homo sapiens [9] = species on record: Homo sapiens; test: In vitro percent inhibition of platelet activating factor (PAF) production in human PMN at 10 uM; assay type: functional

| SMILES | IC50 (Homo sapiens [1]) | inhibition [2] | IC50 (Homo sapiens [3]) | IC50 [4] | IC50 [5] | IC50 [6] | IC50 (Homo sapiens [7]) | IC50 (Homo sapiens [8]) | inhibition at 10 µM (Homo sapiens [9]) |
| --- | --- | --- | --- | --- | --- | --- | --- | --- | --- |
| CC1(C)CCC[C@@]2(C)C1CC[C@]1(C)C2C[C@H](O)[C@@]2(C)C1CC=C(CO)[C@@H]2CO (some centres not stated) | Not Active | 21% | Not Active | 300 nM | > 50000 nM |  |  |  |  |
| CC(=O)O[C@H]1C[C@@H]2[C@@]3(C)CCCC(C)(C)[C@@H]3CC[C@@]2(C)[C@@H]2CC=C(C=O)[C@H](C=O)[C@@]12C [SCALARADIAL] |  |  |  | 40 nM |  | 15 nM | 1000 nM | 1000 nM |  |
| CC(=O)O[C@H]1CC2[C@@]3(C)CCCC(C)(C)C3CC[C@@]2(C)C2CC=C(C(=O)O)[C@H](C(=O)O)[C@]21C (some centres not stated) |  |  |  | 200 nM |  | 4800 nM |  |  | 60% |
